In paper PMC7464304, “Multiple-Reaction Monitoring Tandem Mass Method for Determination of Phenolics and Water-Soluble Vitamins in Eccoilopus formosanus” (Molecules, 2020):

experiment: DPPH radical scavenging activity; conditions: 0.1 mM DPPH, 30 min in the dark at room temperature, absorbance 517 nm; mean ± SD (n = 3)
Experimental: The reaction mixture was left in the dark at room temperature for 30 min. […] The percentage of scavenging activity against the DPPH radical was calculated by the following equation:Radical scavenging activity (%) = (Abs control − Abs sample)/Abs control × 100% where Abs control is the absorbance of the DPPH radical in methanol; Abs sample is the absorbance of the DPPH radical solution mixed with the sample extract. […] All determinations were performed in triplicate.

Structure (SMILES)	DPPH Radical Scavenging Activity, IC50 Value
O=c1cc(-c2ccc(O)cc2)oc2cc(O)cc(O)c12 [Apigenin, apigenin]	31.6 ± 0.9 µg/mL
O=C(O)/C=C/c1ccc(O)c(O)c1 [Caffeic acid, caffeic acid]	25.3 ± 0.3 µg/mL
COc1cc(/C=C/C(=O)O)ccc1O [Ferulic acid, ferulic acid]	45.2 ± 0.3 µg/mL
O=C(O)c1cc(O)c(O)c(O)c1 [Gallic acid, gallic acid]	21.1 ± 0.3 µg/mL
Cc1ncc(C[n+]2csc(CCO)c2C)c(N)n1 [Thiamine, thiamine]	>500 µg/mL
